From paper PMC10813753 (Biology, 2024)
Where “and” joins values, the source holds several entries; their conditions need not be identical. Identical values can stand only once.

How the values were obtained:
HeLa cells [1] = assay: Annexin V/PI FITC apoptosis assay, HeLa; assay type: cell-based, human; details: 20 μM, 48 h, in comparison to untreated cells
Method: For the Annexin V apoptosis experiments, approximately half of the cells used in combined experiments with cell cycle analysis were harvested via trypsinization, PBS washed and stained with the Annexin-V FITC & PI kit (Invitrogen^TM ref. V 13242, Thermo Fisher, Madrid, Spain) following a standard protocol. A total of 10,000 events were recorded, and the results obtained by flow cytometry were represented as dot plots.

[2] = tested on: HFF-1 cells (healthy fibroblasts); assay: MTT viability assay HFF-1; assay type: cell-based, human; details: 72 h
Method: (§1) A panel of five tumor cell lines and two normal cell lines was used to preliminarily test the cytotoxicity of compounds 1–4, and the experiments were conducted as previously reported. All human cell lines were acquired from American Type Culture Collection (ATCC): tumor PC-3 and DU145 (prostate), HeLa (cervix), MCF7 (breast) and HT29 (colorectal) and healthy HFF-1 (fibroblast) and RWPE-1 (prostate). The cell catalogue reference and culture media used in the experiments were CRL-1435^TM, RPMI (PC-3), HTB-81™, RPMI (DU145), CCL-2^TM, DMEM (HeLa), HTB-22^TM, DMEM (MCF-7), HTB-38^TM, modified McCoy’s 5a medium, Catalogue No. 30-2007 (HT29), SCRC-1041^TM, DMEM (HFF-1) and CRL-11609^TM, Keratinocyte-SFM (RWPE-1). Culture media were purchased from Merck: RPMI-1640, DMEM + 10% FBS (Fetal Bovine Serum) + […] (penicillin/streptomycin/amphotericin B). Media and supplements for RWPE-1 were from ThermoFisher (17005075, Madrid, Spain). MCF7 cells were additionally supplemented with insulin (0.001 mg/mL in 500 mL media). Cells were kept at 37 °C (5% CO2), and culture media were renewed three times per week. When the cells reached 80–100% confluence, they were trypsinized and centrifuged, and the concentration was adjusted to each experiment. Cells were seeded at a density of ~10,000 cells/well into 24-well plates. The cells were treated with ligands 1–4 or the cytotoxic agents PhenQE8, PhenDC3 or cisplatin at different concentrations (10 nM–100 μM). Compound solutions were freshly prepared using the appropriate culture medium. Triplicate experiments were run. For MTT viability assays, after 72 h incubation, 50 μL of MTT (5 mg/mL) was added, and an additional incubation of 4 h was allowed. The medium in each well was then replaced by DMSO, and the absorbance was measured at 570 nm using an ELISA plate reader. Absorbances were normalized using negative controls (untreated cells, in triplicate, with a maximum of 0.9% DMSO content). Dose–response curves were obtained by plotting the percentage of viable cells versus logarithmic compound concentration. IC50 values were determined using Kaleidagragh^TM (3.52) software by adjusting the data to Equation 1/(1 + 10^(m2*(log(m1) − x))); m1 = 0.000003; m2 = 1.

HeLa cells (cervix) = assay: MTT viability assay HeLa; assay type: cell-based, human; details: 72 h
Method: as §1

ds17 duplex DNA = assay: Equilibrium dialysis (non-competition and competition), ds17; assay type: binding; details: for Kapp (ds17): 10 mM potassium phosphate, 100 mM KCl, pH 7.2
Method: Equilibrium dialysis experiments were conducted with unlabeled quadruplex DNA and/or with dsDNA sequences as previously reported. G4 sequence Tel22 is 5′-A(GGGTTA)3GGG-3′, and ds17 is 5′-GGG TTA CTA CGA ACT GG-3′/5′-CCA GTT CGT AGT AAC CC-3′. The buffering system employed contained 10 mM potassium phosphate buffer and 100 mM of KCl (pH = 7.2). DNA solution concentrations were determined at 90 °C through UV-visible spectrophotometry using the λmax values and extinction coefficients provided by IDT®. Extinction coefficients of TSC ligand 1 were calculated in water and in buffer in the absence and in the presence of 1% (w/v) triton X-100. Competition and non-competition dialysis experiments were carried out using the protocol described by Chaires, with minor modifications. Dialysis bags (Biotech Regenerated Cellulose (RC) membrane, part number 133192, Spectrum Laboratories, Inc., Fisher, Madrid, Spain) with a 0.2 mL volume were used, with G4 Tel22 or duplex ds17 DNA at a concentration of 75 μM, in monomeric units. The dialysis bags were placed in a beaker containing 200 mL of a solution of compound 1 (2 μM) in buffer. The beaker was sealed with Parafilm, and the solution was allowed to equilibrate at room temperature (22 °C) for 24 h with continuous stirring. […] After 2 h equilibration at room temperature, the total concentration of the ligand (Ct) was determined using UV-visible spectroscopy. The concentration of free compound 1 (Cf) was also determined spectrophotometrically from the dialysate solution. The concentration of the DNA-bound compound (Cb) was then calculated using the equation Cb = Ct − Cf, and Kapp was determined.
Assays were performed at room temperature with ~2 μM solutions of 1, equilibrated with 75 μM (in monomeric units, tetrads or base pairs, respectively) of the tested DNA sequence for 24 h, in a buffer containing 100 mM KCl. […] The concentration of DNA-bound ligand was determined based on at least two different experiments performed in duplicate or triplicate. […]

HeLa cells [3] = assay: Cell cycle analysis by flow cytometry, HeLa; assay type: cell-based, human; details: ½ IC50 concentration, 72 h
Method: For cell cycle experiments, exponentially growing HeLa cells in DMEM were seeded in 6-well plates at a density of 2.5 × 10^5/well. […] Untreated cells were used as controls. After washing with PBS, cells were detached with 0.25% trypsin/0.2% EDTA and centrifuged at 1500 rpm for 5 min at rt. The resulting pellets were mixed with cold 70% ethanol (0.5 mL) and kept at 4 °C for 30 min. Ethanol was removed by centrifugation, and the pellets were washed with 2 mL PBS + 2% BSA and centrifuged. After discarding the supernatants, a propidium iodide solution (PI/RNAse, FxCycle^TM, Invitrogen^TM ref. F10797, 0.5 mL, Thermo Fisher, Madrid, Spain) was added, mixed thoroughly and incubated for 15 min at room temperature prior to analysis by flow cytometry. A total of 10,000 events were registered for each sample. The obtained results were analyzed with the MacsQuantify 2.13.1 program (Miltenyi Biotech, Pozuelo de Alarcón, Spain) and represented as histograms.

## 2,2′-(1,10-Phenanthroline-2,9-diyl)-bis(methylene)-bis(hydrazine-1-carbothioamide) [compound 1]
HeLa cells [1]
  increase in the number of early apoptotic and late apoptotic cells: 20–25%
[2]
  IC50: 74.4 ± 3.1 µM
HeLa cells (cervix)
  IC50: ~100 µM
ds17 duplex DNA; competition dialysis (1 + Tel22 + ds17)
  Kapp (ds17): 0.05 ± 0.01 (M^−1) × 10^−5
ds17 duplex DNA; non-competition dialysis (1 + ds17)
  Kapp (ds17): 0.06 ± 0.01 (M^−1) × 10^−5
ds17 duplex DNA; order of magnitude, equilibrium dialysis
  apparent association constant to dsDNA ds17: ~10^3 M^−1 and ~ 5 × 10^3 M^−1
HeLa cells [3]
  change in SubG0 population: notably increased the number of cells in SubG0
